US20260183295A1, “METHODS AND COMPOSITIONS FOR TREATING CANCER” (Onconova Therapeutics, Inc., priority 2022, published 2026)

Tests used:
Format in all cases: cell-based
HCC-1937 = assay: Cell viability after 72 hours treatment; conditions: HCC-1937 (TNBC)
Description: (§1) The effects on the different treatment conditions on BUB 1 levels and PARP cleavage were also assessed. For both MNA-MB-231 cells, Compound 1 alone or with HCQ or SBI decreased BUB1 levels and cleaved PARP with […] decreases in cell viability observed for all treatments except Compound 1+SBI in MMA-MB-231 cells. The effects of Compound 1 with or without autophagy inhibitors was less pronounced in HCC-1937 cells.

MDA-MB-468 = assay: Cell viability after 72 hours treatment; conditions: MDA-MB-468 (TNBC)
Description: as §1

Hs578T spheroids = assay: CellTiter Glo 3D spheroid viability; conditions: 48 hours; Compound 1, Comparator 1, Comparator 2 5 μM; Comparator 4 10 μM
Description: Viability of the spheroids was assessed using CellTiter Glo 3D.

Caspase 3/7 [1] = assay: Caspase 3/7 Glo assay, MDA-MB-231 cells, 24 hours
Description: To determine how Compound 1 induces cell death, Caspase 3/7 activity was measured using the Caspase 3/7 Glo assay.
The effect of zVAD-FMK treatment on Caspase 3/7 activity was assessed.

Caspase 3/7 [2] = assay: Caspase 3/7 Glo assay with or without bafilomycin A1, MDA-MB-231 cells, 2 days; conditions: 5 μM
Text: FIGS. 34 and 35 show Caspase 3/7 activity as measured by the Caspase 3/7 Glo assay. […] The effect was enhanced by co-treatment with bafilomycin A1 cotreatment.

MDA-MB-231 cells [3] = assay: MTT assay, 24 hours; conditions: zVAD-FMK 20 μM (FIG. 25)
MDA-MB-231 cells [4] = assay: Annexin V/PI staining followed by FACS, 24 hours; conditions: for cell death (Annexin V/PI): Compound 1, Comparator 1, 2 5 μM, Comparator 4 10 μM; for effect of zVAD-FMK on cell death, Annexin V/PI staining: zVAD-FMK 20 μM (FIG. 24)
Description: To determine the effect of the different treatment conditions on cell death, Annexin V/PI staining was performed.

[5] = test system: T-47D, HCC-1937, HS-578T, BT-474, MDA-MB-468, and MD-MB-453 cell lines; assay: MTT cell viability of breast cancer cell line panel versus comparators, 48 hrs (FIG. 17); conditions: Comparator 4 10 μM, Comparator 1 and 2 5 μM, Compound 1 2.5, 5.0, 10 μM
[6] = Compound 1, Comparator 1, 2 5 μM, Comparator 4 10 μM (FIG. 22)
[7] = without zVAD-FMK, relative to DMSO (FIG. 26)

SMILES | 72 h-cell viability decrease (HCC-1937) [%] | 72 h-cell viability decrease (MDA-MB-468) [%] | decrease in organoid viability compared to DMSO (Hs578T spheroids) | Caspase 3/7 activity (Caspase 3/7 [1]; [6]) | Caspase 3/7 activity, compound alone (Caspase 3/7 [2]) | effect of zVAD-FMK on cell death, MTT assay (MDA-MB-231 cells [3]) | Caspase 3/7 activity (Caspase 3/7 [1]; [7]) | cell death (Annexin V/PI) (MDA-MB-231 cells [4]) | effect of zVAD-FMK on cell death, Annexin V/PI staining (MDA-MB-231 cells [4]) | cell death (MTT), comparison of treatments [5] | effect of zVAD-FMK on induced Caspase 3/7 activity (Caspase 3/7 [1]; zVAD-FMK 20 μM (FIG. 26))
CC(=O)c1c(C)c2cnc(Nc3ccc(N4CCNCC4)cn3)nc2n(C2CCCC2)c1=O [Comparator 1, palbociclib] | 15 | 10 | no effect | no effect | no effect |  |  |  |  |  | 
CN(C)C(=O)c1cc2cnc(Nc3ccc(N4CCNCC4)cn3)nc2n1C1CCCC1 [Comparator 2, ribociclib] |  |  | no effect | no effect |  | similarly unaffected | not increased | neither Comparator 1 nor Comparator 2 treatment induced cell death | similarly unaffected |  | 
CCN1CCN(Cc2ccc(Nc3ncc(F)c(-c4cc(F)c5nc(C)n(C(C)C)c5c4)n3)nc2)CC1 [Comparator 3, abemaciclib] | 10 | 50 |  |  |  |  |  |  |  |  | 
CC(C)C[C@H](NC(=O)[C@H](Cc1ccccc1)NC(=O)c1cnccn1)B(O)O [Comparator 4, bortezomib] |  |  | significant cell death | greatest increase |  | partially blocked | large increase | ~55% | partially blocked | induced cell death to the greatest extent | completely inhibited
